Measured values from article PMC8321398, “The discovery of a novel series of compounds with single-dose efficacy against juvenile and adult Schistosoma species” (PLoS Neglected Tropical Diseases, 2021).
Read-outs that look alike come from different tables or passages of the source. Values belong to the compound of their own block, whether it stands above or below them.

What was measured:
HepG2 cells = test: Cytotoxicity, HepG2 cells with MTT; format: cell-based, human; conditions: Table 2; hepG2 cell line, 72 h incubation
Procedure: Activity against mammalian cells was determined using either of two standard assays. The first of these used MRC-5 cells with Alamar blue staining as previously described. The second used HepG2 cells monitored using 3-(4,5-dimethylthiazol-2-yl)-2,5-diphenyltetrazolium bromide (MTT) as previously described.

S. haematobium adult = test: In vitro adult S. haematobium worm assay; format: cell-based; conditions: for EC50: Schistosoma haematobium, S. haematobium, 120 h incubation, read-out: Sh adult EC50; for Potency ratio Sh/Sm: adult EC50 S. haematobium / S. mansoni
Source text: (§1) The Puerto Rican strain of S. mansoni was maintained in Biomphalaria glabrata and CD1 mice. Oncomelania hupensis (hupensis) infected with S. japonicum (Chinese strain) and Bulinus truncatus (truncatus) infected with Egyptian strain S. haematobium were obtained from BEI Resources, NIAID, NIH. Infection of mice for worm recovery was as previously described except that, whereas cercariae of S. mansoni and S. haematobium were obtained by shedding from infected snails under lights, cercariae of S. japonicum were obtained by gently crushing the snails. Furthermore, adult S. haematobium were recovered after 12 weeks following mouse infection.
(§2) In vitro efficacy was carried out as previously described. In brief, worms were recovered from infected mice by portal perfusion 3 weeks (for juveniles) or 6 weeks (for adults) post-infection using warm perfusion medium (Dulbecco’s Modified Eagle’s Medium [DMEM], 2mM L-glutamine, 100 Units/ml penicillin, 100μg/ml streptomycin, 20mM Hepes, 10 Units/ml heparin [Sigma, UK]). Worms were washed free of red blood cells using the perfusion medium, and finally suspended in complete medium (cDMEM: DMEM, 2mM L-glutamine, 100 Units/ml penicillin, 100μg/ml streptomycin, 10% FCS). The juvenile assays were carried out in 96-well plates, each well containing 6–8 worms in 200 μL cDMEM. The adult worm assay was in 24-well plates, each well containing 3 worm pairs in 1mL cDMEM. Both the juvenile and adult worm cultures were kept at 37° C, in an atmosphere of 5% CO2. Drug effects were determined on day 5 following drug treatment by assessing the viability of individual worms as described in [14].

S. japonicum adult = test: In vitro adult S. japonicum worm assay; format: cell-based; conditions: for EC50: Schistosoma japonicum, S. japonicum, 120 h incubation, read-out: Sj adult EC50; for Potency ratio Sj/Sm: adult EC50 S. japonicum / S. mansoni
Source text: as §1, §2

[1] = In vivo efficacy, mouse model of adult (42-day old) S. mansoni infection; conditions: female, CD1, mouse, plasma, po, mouse, Adult infection, read-out: Plasma conc @24 h (efficacy experiment)
Procedure: (§3) Prior to in vivo efficacy experiments, a single animal was given a dose of drug (using the same formulation) that was twice as large as that planned for use in the efficacy experiments and was observed periodically for adverse clinical signs for 24h by trained veterinarians. Adverse clinical signs checked include postural defect, vocalization, oculo-nasal discharge, hypersalivation, change in activity, abnormal gait, respiration and pulse, piloerection, loss of pupillary reflex, eyelid reflex, chromodacryorrhea, reaction to handling, tremor, convulsions, prostration, diarrhoea, cachexia, emaciation. […] In vivo efficacy was assessed in female CD1 mice using methods based on those previously described. Mice were infected subcutaneously with 150 cercariae. Test compounds were suspended in 7% Tween-80 / 3% Ethanol / double distilled water and drug dispersal was facilitated by vortexing and using a sonicating water bath (Formulation “Aqueous”). Alternatively, drugs were first dissolved in DMSO, then diluted with corn oil to give a 1:19 DMSO:corn oil solution/suspension of test compound (Formulation “Corn oil”). Dosing was by oral gavage. Mice in the negative control groups were given the drug suspension vehicle only. Positive controls for treatment of adult, day 42 old, infections were treated with PZQ and those for juvenile, day 21 old, infections with artemether, which unlike PZQ is effective against the juvenile worm infections in mice. During and following treatment, mice were closely observed for any ill effects by staff experienced in animal handling. This involved individuals who were blinded to the treatment groups. Effects they were trained to look for included hunching, immobility, piloerection, subdued behaviour, diarrhoea and loss of body condition. None were seen. Worms were recovered by portal perfusion with citrate saline 8–14 days post treatment and counted. Differences between groups relative to the non-drug treated controls were assessed for statistical significance by Student’s unpaired t-test using GraphPad Prism Software. P values are presented as follows:- ns–P > 0.05 (not significant), * P ≤ 0.05, ** P ≤ 0.01, *** P ≤ 0.001, **** P ≤ 0.0001.
(§4) For pharmacokinetic analysis during the in vivo efficacy experiments individual animals were only sampled once. Samples were taken from one animal in each experimental group at each of 1, 4, 8 h and samples from two animals in each group were taken at 24 h.

S. mansoni adult worms = test: as above
Procedure: as §3, §4

[2] = tested on: panel of 50 human kinases; test: Kinase panel activity; format: biochemical; conditions: 1 μM
Procedure: Kinase panel activity: Activity of compounds at 1 μM was assessed against a panel of 50 kinase enzymes (MKK1, JNK1, p38a MAPK, RSK1, PDK1, PKBa, SGK1, S6K1, PKA, ROCK 2, PRK2, PKCa, PKD1, MSK1, CAMKKb, CAMK1, SmMLCK, CHK2, GSK3b, PLK1, Aurora B, LKB1, AMPK (hum), MARK3, CK1δ, CK2, DYRK1A, NEK6, TBK1, PIM1, SRPK1, EF2K, HIPK2, PAK4, MST2, MLK3, TAK1, IRAK4, RIPK2, TTK, Src, Lck, BTK, JAK3, SYK, EPH-A2, HER4, IGF-1R, TrkA, VEG-FR) carried out by the MRC Protein Phosphorylation and Ubiquitinylation Unit at the University of Dundee, Dundee, DD1 5EH, UK.

hERG = target: T1, hERG (Homo sapiens, UniProt Q12809); test: Ion channel activity (Metrion), hERG, QPatch; format: cell-based; conditions: dose-response up to 10 μM
T1 construct: Metrion biosciences
Procedure: (§5) Ion channel activity. Activity of compounds against ion channels was assessed by Metrion biosciences, Cambridge, CB21 6AD, UK in dose-response experiments (n = 2) up to 10 μM compound concentration with standards & equipment as listed for each ion channel (hERG–verapamil—QPatch, Nav1.5 –amitryptiline—QPatch, Kv1.5 –transDSC—QPatch, Cav1.2 –nimodipine—Flex).

Cav1.2 = target: T2, Cav1.2 (Homo sapiens, UniProt Q13936); test: Ion channel activity (Metrion), Cav1.2, Flex; format: cell-based; conditions: dose-response up to 10 μM
T2 construct: Metrion biosciences
Procedure: as §5

Kv1.5 = target: T3, Kv1.5 (Homo sapiens, UniProt P22460); test: Ion channel activity (Metrion), Kv1.5, QPatch; format: cell-based; conditions: dose-response up to 10 μM
T3 construct: Metrion biosciences
Procedure: as §5

Nav1.5 = target: T4, Nav1.5 (Homo sapiens, UniProt Q14524); test: Ion channel activity (Metrion), Nav1.5, QPatch; format: cell-based; conditions: dose-response up to 10 μM
T4 construct: Metrion biosciences
Procedure: as §5

Stability in plasma = format: in vitro ADME; conditions: 37°C for 3 h
[3] = Stability in phosphate buffer and simulated gastric fluid; format: physicochemical; conditions: for degradation in simulated gastric fluid: pH 1.2, 37°C for 3 h; for degradation in phosphate buffer: pH 8.0, 37°C for 3 h

T1 sequence (Q12809 whole entry): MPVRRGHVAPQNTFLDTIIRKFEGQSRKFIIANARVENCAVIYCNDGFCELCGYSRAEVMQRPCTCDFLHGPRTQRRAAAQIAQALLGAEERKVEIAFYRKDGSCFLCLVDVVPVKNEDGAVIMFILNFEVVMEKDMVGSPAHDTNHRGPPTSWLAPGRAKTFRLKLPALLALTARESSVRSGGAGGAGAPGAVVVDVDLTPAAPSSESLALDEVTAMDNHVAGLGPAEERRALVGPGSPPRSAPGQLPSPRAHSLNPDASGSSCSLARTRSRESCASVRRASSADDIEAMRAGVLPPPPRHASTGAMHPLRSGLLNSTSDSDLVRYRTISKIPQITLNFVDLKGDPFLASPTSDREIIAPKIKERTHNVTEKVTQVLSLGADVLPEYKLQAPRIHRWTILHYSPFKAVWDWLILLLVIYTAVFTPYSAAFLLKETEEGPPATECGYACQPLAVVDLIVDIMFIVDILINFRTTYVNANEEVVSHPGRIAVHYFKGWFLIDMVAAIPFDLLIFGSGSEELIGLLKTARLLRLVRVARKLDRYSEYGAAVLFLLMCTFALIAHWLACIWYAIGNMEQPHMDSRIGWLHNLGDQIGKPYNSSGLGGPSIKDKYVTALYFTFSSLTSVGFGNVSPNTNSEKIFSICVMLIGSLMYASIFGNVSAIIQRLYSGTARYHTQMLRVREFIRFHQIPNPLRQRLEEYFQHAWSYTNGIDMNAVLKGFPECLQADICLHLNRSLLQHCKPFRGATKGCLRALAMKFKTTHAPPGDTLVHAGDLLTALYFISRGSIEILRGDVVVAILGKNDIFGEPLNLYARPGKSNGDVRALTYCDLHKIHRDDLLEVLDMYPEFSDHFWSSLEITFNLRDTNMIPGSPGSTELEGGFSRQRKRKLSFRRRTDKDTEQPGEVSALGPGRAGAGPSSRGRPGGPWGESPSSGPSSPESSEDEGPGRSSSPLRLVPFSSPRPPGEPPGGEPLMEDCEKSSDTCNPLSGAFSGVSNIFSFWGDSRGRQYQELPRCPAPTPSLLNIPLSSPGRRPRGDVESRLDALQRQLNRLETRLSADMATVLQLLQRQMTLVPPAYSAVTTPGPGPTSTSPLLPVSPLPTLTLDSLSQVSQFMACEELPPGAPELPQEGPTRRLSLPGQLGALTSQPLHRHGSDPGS
T3 sequence (P22460 whole entry): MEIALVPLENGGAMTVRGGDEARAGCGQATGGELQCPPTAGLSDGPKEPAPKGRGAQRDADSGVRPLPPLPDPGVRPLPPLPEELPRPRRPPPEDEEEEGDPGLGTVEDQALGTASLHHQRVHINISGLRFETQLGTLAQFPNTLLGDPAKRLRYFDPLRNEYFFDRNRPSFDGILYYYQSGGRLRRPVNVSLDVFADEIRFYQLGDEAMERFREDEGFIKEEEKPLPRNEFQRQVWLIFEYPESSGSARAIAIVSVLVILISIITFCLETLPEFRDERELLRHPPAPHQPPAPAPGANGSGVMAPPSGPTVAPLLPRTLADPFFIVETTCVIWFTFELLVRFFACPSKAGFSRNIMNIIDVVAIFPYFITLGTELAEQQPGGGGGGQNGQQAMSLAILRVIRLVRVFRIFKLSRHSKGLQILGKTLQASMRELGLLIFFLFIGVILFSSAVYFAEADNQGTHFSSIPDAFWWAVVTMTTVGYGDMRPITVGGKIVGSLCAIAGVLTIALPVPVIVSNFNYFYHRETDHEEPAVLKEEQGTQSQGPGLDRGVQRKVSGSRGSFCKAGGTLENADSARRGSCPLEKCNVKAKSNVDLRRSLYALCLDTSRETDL
T4 sequence (Q14524 whole entry): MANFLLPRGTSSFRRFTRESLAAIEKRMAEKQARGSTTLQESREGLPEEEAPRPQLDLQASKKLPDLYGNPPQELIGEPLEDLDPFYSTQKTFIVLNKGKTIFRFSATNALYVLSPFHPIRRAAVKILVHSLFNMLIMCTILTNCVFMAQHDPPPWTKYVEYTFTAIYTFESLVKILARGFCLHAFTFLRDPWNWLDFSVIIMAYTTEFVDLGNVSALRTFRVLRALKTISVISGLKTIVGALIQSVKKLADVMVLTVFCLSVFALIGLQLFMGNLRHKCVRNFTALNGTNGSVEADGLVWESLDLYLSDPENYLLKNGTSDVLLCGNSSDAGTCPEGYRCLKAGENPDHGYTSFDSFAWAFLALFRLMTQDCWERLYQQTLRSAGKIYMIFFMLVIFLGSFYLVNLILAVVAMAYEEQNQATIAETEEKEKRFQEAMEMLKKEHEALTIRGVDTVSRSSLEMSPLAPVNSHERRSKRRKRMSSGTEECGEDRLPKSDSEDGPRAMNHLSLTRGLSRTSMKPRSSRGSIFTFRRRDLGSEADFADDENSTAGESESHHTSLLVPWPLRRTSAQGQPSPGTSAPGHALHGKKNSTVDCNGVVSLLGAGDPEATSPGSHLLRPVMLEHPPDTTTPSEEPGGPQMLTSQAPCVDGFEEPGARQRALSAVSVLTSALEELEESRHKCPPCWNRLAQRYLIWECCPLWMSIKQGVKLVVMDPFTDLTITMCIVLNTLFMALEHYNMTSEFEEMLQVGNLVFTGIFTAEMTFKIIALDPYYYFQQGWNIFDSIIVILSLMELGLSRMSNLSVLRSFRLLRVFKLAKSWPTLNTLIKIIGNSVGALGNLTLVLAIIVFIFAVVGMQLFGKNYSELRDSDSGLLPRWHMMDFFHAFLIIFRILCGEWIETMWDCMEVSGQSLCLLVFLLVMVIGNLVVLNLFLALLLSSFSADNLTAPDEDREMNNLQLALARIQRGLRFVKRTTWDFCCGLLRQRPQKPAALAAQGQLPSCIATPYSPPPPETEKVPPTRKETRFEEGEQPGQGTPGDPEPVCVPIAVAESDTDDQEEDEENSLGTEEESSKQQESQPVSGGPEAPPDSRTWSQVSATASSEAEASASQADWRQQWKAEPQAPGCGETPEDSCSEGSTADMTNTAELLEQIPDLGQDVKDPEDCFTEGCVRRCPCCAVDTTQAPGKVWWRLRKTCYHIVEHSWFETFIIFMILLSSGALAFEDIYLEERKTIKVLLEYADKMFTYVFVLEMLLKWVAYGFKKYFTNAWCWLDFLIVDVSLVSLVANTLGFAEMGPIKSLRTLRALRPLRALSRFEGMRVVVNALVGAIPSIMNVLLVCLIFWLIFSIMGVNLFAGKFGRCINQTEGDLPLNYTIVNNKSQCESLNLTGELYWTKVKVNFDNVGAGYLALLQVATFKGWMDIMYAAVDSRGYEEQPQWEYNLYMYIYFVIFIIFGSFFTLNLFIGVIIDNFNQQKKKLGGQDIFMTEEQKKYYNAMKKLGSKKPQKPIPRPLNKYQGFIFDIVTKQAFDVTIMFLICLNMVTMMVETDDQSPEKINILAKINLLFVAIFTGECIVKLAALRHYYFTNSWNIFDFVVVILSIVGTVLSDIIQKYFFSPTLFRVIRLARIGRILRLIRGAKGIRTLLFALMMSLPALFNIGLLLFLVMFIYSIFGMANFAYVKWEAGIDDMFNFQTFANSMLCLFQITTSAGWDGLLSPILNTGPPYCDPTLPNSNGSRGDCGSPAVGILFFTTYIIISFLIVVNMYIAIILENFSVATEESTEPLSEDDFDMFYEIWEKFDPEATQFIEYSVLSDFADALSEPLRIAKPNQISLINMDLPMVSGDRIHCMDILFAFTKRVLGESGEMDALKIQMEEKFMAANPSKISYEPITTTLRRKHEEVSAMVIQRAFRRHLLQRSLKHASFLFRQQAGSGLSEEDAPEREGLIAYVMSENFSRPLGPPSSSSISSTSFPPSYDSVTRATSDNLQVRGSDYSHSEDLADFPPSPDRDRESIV

SMILES: Fc1c(-c2c(C(F)(F)F)nc3cnc(-c4cccc(C(F)(F)C(F)(F)F)c4)cn23)ccc2[nH]ncc12 [LSHTM-3608]
Cytotox TC50 (HepG2 cells): 10,900 nM
EC50 (S. haematobium adult): 9.3 nM
Potency ratio Sh/Sm (S. haematobium adult): 0.6
EC50 (S. japonicum adult): 95.2 nM
Potency ratio Sj/Sm (S. japonicum adult): 6.2

SMILES: CC(C)c1nc2cnc(-c3ccc(F)c(C(F)(F)F)c3)cn2c1-c1ccc2[nH]ncc2c1F [LSHTM-3604]
Cytotox TC50 (HepG2 cells): 12,000 nM
inhibition, panel of 50 human kinases [2]: ≤ 25%

SMILES: CC(C)c1cc(-c2cn3c(-c4ccc5[nH]ncc5c4F)c(C4CC4)nc3cn2)ccc1F [LSHTM-3686]
Cytotox TC50 (HepG2 cells): 15,800 nM
EC50 (S. haematobium adult): 3.7 nM
Potency ratio Sh/Sm (S. haematobium adult): 0.7
EC50 (S. japonicum adult): 46.9 nM
Potency ratio Sj/Sm (S. japonicum adult): 8.7
concentration at 24 h ([1]; oral 6.25x2 mg/kg (12 h apart), formulation corn oil): 241 ng/mL
Worms remaining (S. mansoni adult worms; mouse, Adult infection, oral 6.25x2 mg/kg (12 h apart), formulation corn oil): 2.4%
inhibition of hERG (hERG): Neither LSHTM-3645 nor LSHTM-3686 showed any inhibition
inhibition of Cav1.2 (Cav1.2): Neither LSHTM-3645 nor LSHTM-3686 showed any inhibition
inhibition of Kv1.5 (Kv1.5): Neither LSHTM-3645 nor LSHTM-3686 showed any inhibition
inhibition of Nav1.5 (Nav1.5): Neither LSHTM-3645 nor LSHTM-3686 showed any inhibition
degradation in plasma (Stability in plasma): No degradation
degradation in simulated gastric fluid [3]: No degradation
degradation in phosphate buffer [3]: No degradation

SMILES: CC(C)c1nc2cnc(-c3ccc(F)c(C(F)(F)F)c3)cn2c1-c1c(F)cc(O)cc1F [LSHTM-3520]
Cytotox TC50 (HepG2 cells): 7,130 nM
EC50 (S. haematobium adult): 17.9 nM
Potency ratio Sh/Sm (S. haematobium adult): 0.4
EC50 (S. japonicum adult): 73.5 nM
Potency ratio Sj/Sm (S. japonicum adult): 1.6
concentration at 24 h ([1]; 200 mg/kg, oral 200 mg/kg, formulation Aq): 2000 ng/mL
reducing the S. mansoni worm count (S. mansoni adult worms; mice infected for 42 days (adult worms), 200 mg/kg single oral dose): highly effective
Worms remaining (S. mansoni adult worms; mouse, Adult infection, oral 200 mg/kg, formulation Aq): 1%
Plasma conc @24 h (efficacy experiment) (S. mansoni adult worms; mouse, Adult infection, oral 200 mg/kg, formulation Aq, 200 mg/kg): 1,907 ng/mL
inhibition, panel of 50 human kinases [2]: ≤ 25%

Now from value to compound, other results behind:

EC50 (S. haematobium adult): 23 nM
EC50 (S. japonicum adult): 389 nM
concentration at 24 h ([1]; 12.5 mg/kg, oral 12.5 mg/kg, formulation Aq): 939 ng/mL
in vivo EC50 against adult worms (S. mansoni adult worms; mouse model, single oral dose (Fig 9A)): < 6.25 mg/kg
inhibition, panel of 50 human kinases [2]: ≤ 25%
SMILES: Fc1ccc(-c2cn3c(-c4ccc5[nH]ncc5c4F)c(C(F)(F)F)nc3cn2)cc1C(F)(F)F [LSHTM-3642, 3-(4-fluoro-1H-indazol-5-yl)-6-(4-fluoro-3-(trifluoromethyl)phenyl)-2-(trifluoromethyl)imidazo[1,2-a]pyrazine]
Cytotox TC50 (HepG2 cells): 16,600 nM
Worms remaining (S. mansoni adult worms; mouse, Adult infection, oral 12.5 mg/kg, formulation Aq): 1%

EC50 (S. haematobium adult): 6.5 nM
EC50 (S. japonicum adult): 129 nM
concentration at 24 h ([1]; 6.25 mg/kg, oral 6.25 mg/kg, formulation corn oil): 1010 ng/mL
degradation in plasma (Stability in plasma): No degradation
degradation in simulated gastric fluid [3]: No degradation
degradation in phosphate buffer [3]: No degradation
SMILES: Fc1ccc(-c2cn3c(-c4ccc5[nH]ncc5c4F)c(C(F)(F)F)nc3cn2)cc1C(F)(F)C(F)(F)F [LSHTM-3645]
Cytotox TC50 (HepG2 cells): 11,700 nM
Potency ratio Sh/Sm (S. haematobium adult): 0.7
Potency ratio Sj/Sm (S. japonicum adult): 13.3
Worms remaining (S. mansoni adult worms; mouse, Adult infection, oral 6.25 mg/kg, formulation corn oil): 1%
efficacy against adult worm infections (S. mansoni adult worms; mouse, single oral dose (Fig 9B)): highly effective
inhibition of hERG (hERG): Neither LSHTM-3645 nor LSHTM-3686 showed any inhibition
inhibition of Cav1.2 (Cav1.2): Neither LSHTM-3645 nor LSHTM-3686 showed any inhibition
inhibition of Kv1.5 (Kv1.5): Neither LSHTM-3645 nor LSHTM-3686 showed any inhibition
inhibition of Nav1.5 (Nav1.5): Neither LSHTM-3645 nor LSHTM-3686 showed any inhibition
